Patent US20070259888A1, “Novel Compounds” (ASTRAZENECA AB, priority 2006, published 2007)

What was measured:
[1] = target: T1, human M2 receptor (human Muscarinic receptor subtype 2) (Homo sapiens, UniProt P08172); assay: hM2 receptor GTPγS binding; type: biochemical; details: CHO membranes expressing hM2, GTPγ35S binding; for EC50: read-out: hM2_EC50
T1 construct: purchased Perkin-Elmer RBHM2M; host or cells: Chinese hamster ovary cells (CHO), membranes
T1 sequence (P08172 1-466): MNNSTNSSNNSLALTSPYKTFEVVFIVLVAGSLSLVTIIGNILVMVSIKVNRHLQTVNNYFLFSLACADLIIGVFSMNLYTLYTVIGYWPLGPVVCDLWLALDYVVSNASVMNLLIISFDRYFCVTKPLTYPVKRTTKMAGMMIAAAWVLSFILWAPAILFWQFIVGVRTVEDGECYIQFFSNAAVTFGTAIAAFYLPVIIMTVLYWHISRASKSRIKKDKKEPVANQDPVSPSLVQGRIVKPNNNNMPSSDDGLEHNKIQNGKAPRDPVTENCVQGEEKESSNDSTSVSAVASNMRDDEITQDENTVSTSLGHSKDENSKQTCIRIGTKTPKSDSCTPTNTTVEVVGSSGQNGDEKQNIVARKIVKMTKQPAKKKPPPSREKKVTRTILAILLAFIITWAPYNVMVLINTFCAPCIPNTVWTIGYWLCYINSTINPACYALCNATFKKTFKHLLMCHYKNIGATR
Experimental: hM2 Receptor GTPyS Binding
Membranes produced from Chinese hamster ovary cells (CHO) expressing the cloned human M2 receptor (human Muscarinic receptor subtype 2, gene bank access NM_000739), were obtained from Perkin-Elmer (RBHM2M). The membranes were thawed at 37° C., passed 3 times through a 23-gauge blunt-end needle, diluted in the GTPγS binding buffer (50 mM Hepes, 20 mM NaOH, 100 mM NaCl, 1 mM EDTA, 5 mM MgCl2, pH 7.4, 100 μM DTT). The EC50, IC50 and Emax of the compounds of the invention were evaluated from 10-point dose-response curves (three fold concentration range) done in 60 μl in 384-well non-specific binding surface plate (Corning). Ten microliters from the dose-response curves plate (5× concentration) were transferred to another 384 well plate containing the following: 10 μg of hM2 membranes, 500 μg of Flashblue beads (Perkin-Elmer) and GDP in a 25 μl volume. An additional 15 μl containing 3.3× (55000 dpm) of GTPγ^35S (0.4 nM final) were added to the wells resulting in a total well volume of 50 μl. Basal and maximal stimulated GTPγ^35S binding was determined in absence and presence of 30 μM of acetylcholine agonist. The membranes/beads mix were pre-incubated for 15 minutes at room temperature with 25 μM GDP prior to distribution in plates (12.5 μM final). The reversal of acetylcholine-induced stimulation (2 μM final) of GTPγ^35S binding was used to assay the antagonist properties (IC50) of the compounds. The plates were incubated for 60 minutes at room temperature with shaking, then centrifuged at 2000 rpm for 5 minutes. The radioactivity (cpm) was counted in a Trilux (Perkin-Elmer).
Values of EC50, IC50 and Emax were obtained using sigmoidal fits of a non-linear curve-fitting program (XLfit version 5.0.6 from ID Business Solutions Limited, Guildford, UK) of percent-stimulated GTPγ^35S binding vs. log (molar ligand).
All EC50 and IC50 values are reported as geometric means of ‘n’ independent experiments. […] The IC50 was the concentration of the compound of the invention at which 50% inhibition of acetylcholine GTPγ^35S binding stimulation has been observed.

[2] = target: T2, hM1 (human Muscarinic receptor subtype 1) (Homo sapiens, UniProt P11229); assay: Human M1 calcium mobilization FLIPR assay; type: cell-based; details: CHO cells expressing hM1, FLIPR; for EC50: read-out: hM1EC50; for Emax: read-out: hM1Emax
T2 construct: expressed in transfected cells; host or cells: CHO cells (chinese hamster ovary cells, ATCC)
T2 sequence (P11229 1-460): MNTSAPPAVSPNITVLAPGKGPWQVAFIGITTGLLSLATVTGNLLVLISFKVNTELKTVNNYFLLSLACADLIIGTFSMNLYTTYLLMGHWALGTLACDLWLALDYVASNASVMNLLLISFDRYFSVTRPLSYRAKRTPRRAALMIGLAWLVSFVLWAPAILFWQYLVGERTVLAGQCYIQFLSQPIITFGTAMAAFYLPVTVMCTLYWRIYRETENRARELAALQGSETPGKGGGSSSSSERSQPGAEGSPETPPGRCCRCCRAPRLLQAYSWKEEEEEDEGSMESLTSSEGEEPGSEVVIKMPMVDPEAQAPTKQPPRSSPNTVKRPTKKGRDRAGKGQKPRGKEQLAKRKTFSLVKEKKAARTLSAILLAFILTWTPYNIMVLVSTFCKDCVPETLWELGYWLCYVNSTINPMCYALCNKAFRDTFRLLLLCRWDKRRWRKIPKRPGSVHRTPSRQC
Experimental: The compound activity in the present invention (EC50 or IC50) was measured using a 384 plate-based imaging assay that monitors drug induced intracellular Ca^2+ release in whole cells. Activation of hM1 (human Muscarinic receptor subtype 1, gene bank access NM_000738), rM1 (rat Muscarinic receptor subtype 1, gene bank access NM_080773), hM3 (human Muscarinic receptor subtype 3, gene bank access NM_000740NM_000740) and hM5 (human Muscarinic receptor subtype 5, gene bank access NM_0121258) receptors expressed in CHO cells (chinese hamster ovary cells, ATCC) was quantified in a Molecular Devices FLIPR II™ instrument as an increase in fluorescent signal. Inhibition of hM3 and hM5 by compounds was determined by the decrease in fluorescent signal in response to 2 nM acetylcholine activation.
CHO cells were plated in 384-black polylysine coated plate (Costar) at 8000 cells/well/50 μl for 24 hours or 4000 cells/well for 48 hours in a humidified incubator (5% CO2 and 37° C.) in DMEM/F12 medium without selection agent. Prior to the experiment the cell culture medium was removed from the plates by inversion. A loading solution of 30 μl of Hank's balanced salt solution, 10 mM Hepes and 2.5 mM Probenicid at Ph 7.4 (Cat no. 311-520-VL, Wisent) with 2 μM calcium indicator dye (FLUO-3AM, Molecular Probes F14202) was added to each well. Plates were incubated at 37° C. for 60 minutes prior to start the experiment. The incubation was terminated by washing the cells four times in assay buffer, leaving a residual 25 μl buffer per well. Cell plates were then transferred to the FLIPR, ready for compound additions.
The day of experiment, acetylcholine and compounds were diluted in three-fold concentration range (10 points serial dilution) for addition by FLIPR instrument. For all calcium assays, a baseline reading was taken for 30 seconds followed by the addition of 12.5 μl (25 μl for hM1 and rM1) of compounds, resulting in a total well volume of 37.5 μl (50 μl for hM1 and rM1). Data were collected every 1.6 seconds for 300 seconds. For hM3 and hM5 an additional 12.5 μl of acetylcholine (2 nM final) was added at 300 seconds. After this addition of acetylcholine (producing a final volume of 50 μl), the FLIPR continued to collect data every 2 seconds for 240 seconds. The fluorescence emission was read using filter 1 (emission 520-545 nm) by the FLIPR on board CCD camera.
Calcium mobilization output data were calculated as the maximal relative fluorescence unit (RFU) minus the minimal value for both compound and agonist reading frame (except for hM1 and rM1 using only the maximal RFU). Data were analyzed using sigmoidal fits of a non-linear curve-fitting program (XLfit version 5.0.6 from ID Business Solutions Limited, Guildford, UK). All EC50 and IC50 values are reported as geometric means of ‘n’ independent experiments.

Compound | Emax [1] [%] | EC50 [1] [nM] | EC50 [2] [nM] | Emax [2] [%]
CCOC[C@@H]1CCCN(C[C@H]2CCCC[C@@H]2NC(=O)c2ccc(CNS(=O)(=O)C3CC3)cc2)C1 | 40 | 1430 | 11 | 102
O=C(N[C@H]1CCCC[C@@H]1CN1CCCC(c2ccccc2)C1)c1ccc(-n2cccn2)nc1 (stereo partly shown) |  |  | 393 | 105
CCOC[C@@H]1CCCN(C[C@H]2CCCC[C@@H]2NC(=O)CNC(C)=O)C1 |  |  | 322 | 91
CCO[C@@H]1CCCN(C[C@H]2CCCC[C@@H]2NC(=O)c2cnccn2)C1 |  |  | 1500 | 76
CCOCC1CCCN(C[C@@H]2CCCC[C@H]2NC(=O)c2ccc(-c3cnco3)cc2)C1 (mixture of isomers) | 25 | 5480 | 17 | 97
CCCCC1CCCN(C[C@@H]2CCCC[C@H]2NC(=O)CCc2ccc(Cl)cc2)C1 (mixture of isomers) | 38 | 1230 | 174 | 86
CCCCC1CCCN(C[C@@H]2CCCC[C@H]2NC(=O)c2ccc(CN(CC)CC)cc2)C1 (mixture of isomers) | 2 | 165 | 103 | 94
C=CCOCC1CCCN(C[C@@H]2CCCC[C@H]2NC(=O)c2ccc(CN3CCN(C)CC3)cc2)C1 (mixture of isomers) [Trans-(±)-N-[2-({3-[(Allyloxy)methyl]piperidin-1-yl}methyl)cyclohexyl]-4-[(4-methylpiperazin-1-yl)methyl]benzamide] | 19 | 390 | 49 | 80
CCOC[C@@H]1CCCN(C[C@H]2CCCC[C@@H]2NC(=O)c2ccc(CN(C(C)=O)C(C)=O)cc2)C1 [4-[(diacetylamino)methyl]-N-((1S,2R)-2-{[(3R)-3-(ethoxymethyl)piperidin-1-yl]methyl}cyclohexyl)benzamide] | 18 | 3300 | 103 | 91
C=CCO[C@@H]1CCCN(C[C@H]2CCCC[C@@H]2NC(=O)c2ccc(-n3cccn3)nc2)C1 [N-((1S,2R)-2-{[(3R)-3-(allyloxy)piperidin-1-yl]methyl}cyclohexyl)-6-(1H-pyrazol-1-yl)nicotinamide] | 50 | 4450 | 33 | 97
CCOC[C@@H]1CCCN(C[C@H]2CCCC[C@@H]2NC(=O)c2cnc(C)cc2C)C1 [N-((1S,2R)-2-{[(3R)-3-(ethoxymethyl)piperidin-1-yl]methyl}cyclohexyl)-4,6-dimethylnicotinamide] |  |  | 504 | 54
CCOC[C@@H]1CCCN(C[C@H]2CCCC[C@@H]2NC(=O)c2ccc(-n3cnnn3)cc2)C1 [N-((1S,2R)-2-{[(3R)-3-(ethoxymethyl)piperidin-1-yl]methyl}cyclohexyl)-4-(1H-tetrazol-1-yl)benzamide] | 27 | 1210 | 9 | 95
CCOC[C@@H]1CCCN(C[C@H]2CCCC[C@@H]2NC(=O)c2ccc3c(c2)OCCN3C)C1 [N-((1S,2R)-2-{[(3R)-3-(ethoxymethyl)piperidin-1-yl]methyl}cyclohexyl)-4-methyl-3,4-dihydro-2H-1,4-benzoxazine-7-carboxamide] | 0 | > 30000 | 152 | 85
CCOC[C@@H]1CCCN(C[C@H]2CCCC[C@@H]2NC(=O)c2ccc(CNS(C)(=O)=O)cc2)C1 [N-((1S,2R)-2-{[(3R)-3-(ethoxymethyl)piperidin-1-yl]methyl}cyclohexyl)-4-{[(methylsulfonyl)amino]methyl}benzamide] | 34 | 1340 | 20 | 95
CCOC[C@@H]1CCCN(C[C@H]2CCCC[C@@H]2NC(=O)c2cc3nc(C)cc(C)n3n2)C1 [N-((1S,2R)-2-{[(3R)-3-(ethoxymethyl)piperidin-1-yl]methyl}cyclohexyl)-5,7-dimethylpyrazolo[1,5-a]pyrimidine-2-carboxamid] | 0 | > 30000 | 22 | 82
CCOC[C@@H]1CCCN(C[C@H]2CCCC[C@@H]2NC(=O)c2ccc(N3CCCC3)nc2)C1 [N-((1S,2R)-2-{[(3R)-3-(ethoxymethyl)piperidin-1-yl]methyl}cyclohexyl)-6-pyrrolidin-1-ylnicotinamide] | 60 | 107 | 41 | 91
CCOC[C@@H]1CCCN(C[C@H]2CCCC[C@@H]2NC(=O)c2ccccc2)C1 [N-((1S,2R)-2-{[(3R)-3-(ethoxymethyl)piperidin-1-yl]methyl}cyclohexyl)benzamide] | 34 | 1910 | 119 | 74
CCOC[C@@H]1CCCN(C[C@H]2CCCC[C@@H]2NC(=O)C2CCc3ccccc3O2)C1 (stereo partly drawn) [N-((1S,2R)-2-{[(3R)-3-(ethoxymethyl)piperidin-1-yl]methyl}cyclohexyl)chromane-2-carboxamide] | 54 | 570 | 55 | 98
